Data on one molecule can be found in patent US9056139B2, “Fatty acid-salicylate conjugates with enhanced therapeutic properties” (KEAN UNIVERSITY, priority 2012, dated 2015).

The subject of the test is HT-29 human adenocarcinoma cells. The experiment in a line: Apoptosis induction in Human Adenocarcinoma cells (HT-29). The test is classed as cell-based. The settings on record: HT-29 cells, FIG. 18 and FIG. 19.

`CC/C=C\C/C=C\C/C=C\C/C=C\C/C=C\C/C=C\CCC(=O)Oc1ccccc1C(=O)O` [DHASPIR, 2-((4Z,7Z,10Z,13Z,16Z,19Z)-docosa-4,7,10,13,16,19-hexaenoyloxy)benzoic acid]: the pro-apoptotic effect result is on record as “same pro-apoptotic effect as the DHA/acetyl salicylate combination”.
